Laboratory results taken from US9777001B2 (priority 2014, dated 2017).
Structures can show the parent of a compound that is named as a salt.

target: human plasma kallikrein (Homo sapiens, UniProt P03952); assay: biochemical; details: purified human plasma kallikrein, substrate S-2302, sodium phosphate buffer pH 7.5
Sequence (P03952 391-638 limits assumed): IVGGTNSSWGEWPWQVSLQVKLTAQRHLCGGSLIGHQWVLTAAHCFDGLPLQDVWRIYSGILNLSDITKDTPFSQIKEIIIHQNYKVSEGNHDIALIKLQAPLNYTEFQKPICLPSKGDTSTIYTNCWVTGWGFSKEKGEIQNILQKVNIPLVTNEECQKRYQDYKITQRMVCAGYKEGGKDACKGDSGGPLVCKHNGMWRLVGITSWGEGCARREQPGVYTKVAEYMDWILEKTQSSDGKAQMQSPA
Sequence (P03952 20-390 partner limits assumed): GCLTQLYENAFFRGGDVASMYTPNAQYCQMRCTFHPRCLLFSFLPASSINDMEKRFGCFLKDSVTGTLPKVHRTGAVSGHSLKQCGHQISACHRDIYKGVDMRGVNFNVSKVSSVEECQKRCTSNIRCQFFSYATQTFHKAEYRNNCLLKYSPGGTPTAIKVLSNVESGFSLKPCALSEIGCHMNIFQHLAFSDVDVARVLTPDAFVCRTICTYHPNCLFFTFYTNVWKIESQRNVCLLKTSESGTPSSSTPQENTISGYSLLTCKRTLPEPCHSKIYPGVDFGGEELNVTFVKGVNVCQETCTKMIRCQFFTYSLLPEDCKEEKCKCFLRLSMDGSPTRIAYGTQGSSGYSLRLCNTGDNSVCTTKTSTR

SMILES	Ki [nM]
COC(=O)Nc1ccc2c(c1)CCCCCC[C@H](n1cnc(-c3cc(Cl)ccc3-n3cnnn3)cc1=O)c1nc-2c[nH]1 [Example 132, methyl N-[(14S)-14-{4-[5-chloro-2-(1H-1,2,3,4-tetrazol-1-yl)phenyl]-6-oxo-1,6-dihydropyrimidin-1-yl}-16,18-diazatricyclo[13.2.1.0^2,7]octadeca-1(17),2,4,6,15(18)-pentaen-5-yl]carbamate trifluoroacetate]	340
C[C@@H]1CCC[C@H](n2cnc(-c3cc(Cl)ccc3-n3cc(C(F)(F)F)nn3)cc2=O)c2cc(ccn2)-c2cc(F)ccc2NC1=O [Example 135, (10R,14S)-14-(4-{5-chloro-2-[4-(trifluoromethyl)-1H-1,2,3-triazol-1-yl]phenyl}-6-oxo-1,6-dihydropyrimidin-1-yl)-4-fluoro-10-methyl-8,16-diazatricyclo [13.3.1.0^2,7]nonadeca-1(19),2(7),3,5,15,17-hexaen-9-one trifluoroacetate]	29
CCOc1cn(-c2ccc(Cl)c(F)c2-c2cc(=O)n([C@H]3CCC[C@@H](C)C(=O)Nc4ccc(F)cc4-c4ccnc3c4)cn2)nn1 [Example 136, (10R,14S)-14-{4-[3-chloro-6-(4-ethoxy-1H-1,2,3-triazol-1-yl)-2-fluorophenyl]-6-oxo-1,6-dihydropyrimidin-1-yl}-4-fluoro-10-methyl-8,16-diazatricyclo [13.3.1.0^2,7]nonadeca-1(19),2(7),3,5,15,17-hexaen-9-one trifluoroacetate]	76
Cc1cn(-c2ccc(Cl)c(F)c2-c2cc(=O)n([C@H]3CCC[C@@H](C)C(=O)Nc4ccc(F)cc4-c4ccnc3c4)cn2)nn1 [Example 137, (10R,14S)-14-{4-[3-chloro-2-fluoro-6-(4-methyl-1H-1,2,3-triazol-1-yl)phenyl]-6-oxo-1,6-dihydropyrimidin-1-yl}-4-fluoro-10-methyl-8,16-diazatricyclo[13.3.1.0^2,7]nonadeca-1(19),2(7),3,5,15,17-hexaen-9-one]	12
C[C@@H]1CCC[C@H](n2cnc(-c3cc(Cl)ccc3-n3cc(O)nn3)cc2=O)c2cc(ccn2)-c2cc(F)ccc2NC1=O [Example 139, (10R,14S)-14-{4-[5-chloro-2-(4-hydroxy-1H-1,2,3-triazol-1-yl)phenyl]-6-oxo-1,6-dihydropyrimidin-1-yl}-4-fluoro-10-methyl-8,16-diazatricyclo[13.3.1.0^2,7]nonadeca-1(19),2(7),3,5,15,17-hexaen-9-one trifluoroacetate]	510
C[C@@H]1CCC[C@H](n2cnc(-c3cc(Cl)ccc3C(F)(F)F)cc2=O)c2cc(ccn2)-c2cc(F)ccc2NC1=O [Example 141, (10R,14S)-14-{4-[5-chloro-2-(trifluoromethyl)phenyl]-6-oxo-1,6dihydropyrimidin-1-yl}-4-fluoro-10-methyl-8,16-diazatricyclo[13.3.1.0^2,7]nonadeca-1(19),2(7),3,5,15,17-hexaen-9-one trifluoroacetate]	580
CCOc1cn(-c2ccc(Cl)cc2-c2cc(=O)n([C@H]3CCC[C@@H](C)C(=O)Nc4ccc(F)cc4-c4ccnc3c4)cn2)nn1 [Example 144, (10R,14S)-14-{4-[5-chloro-2-(4-ethoxy-1H-1,2,3-triazol-1-yl)phenyl]-6-oxo-1,6-dihydropyrimidin-1-yl}-4-fluoro-10-methyl-8,16-diazatricyclo[13.3.1.0^2,7]nonadeca-1(19),2(7),3,5,15,17-hexaen-9-one trifluoroacetate]	210
C[C@@H]1CCC[C@H](n2cnc(-c3cc(Cl)ccc3OC(F)(F)F)cc2=O)c2cc(ccn2)-c2cc(F)ccc2NC1=O [Example 146, (10R,14S)-14-{4-[5-chloro-2-(trifluoromethoxy)phenyl]-6-oxo-1,6-dihydropyrimidin-1-yl}-4-fluoro-10-methyl-8,16-diazatricyclo[13.3.1.0^2,7]nonadeca-1(19),2(7),3,5,15,17-hexaen-9-one trifluoroacetate]	3800
C[C@@H]1CCC[C@H](n2cnc(-c3c(Cl)ccc(Cl)c3F)cc2=O)c2cc(ccn2)-c2cc(F)ccc2NC1=O [Example 147, (10R,14S)-14-[4-(3,6-dichloro-2-fluorophenyl)-6-oxo-1,6-dihydropyrimidin-1-yl]-4-fluoro-10-methyl-8,16-diazatricyclo[13.3.1.0^2,7]nonadeca-1(19),2(7),3,5,15,17-hexaen-9-one trifluoroacetate]	210
C[C@@H]1CCC[C@H](n2cnc(-c3cc(Cl)ccc3-n3cc(C(N)=NO)nn3)cc2=O)c2cc(ccn2)-c2cc(F)ccc2NC1=O [Example 149, 1-(4-chloro-2-{1-[(10R,14S)-4-fluoro-10-methyl-9-oxo-8,16-diazatricyclo [13.3.1.0^2,7]nonadeca-1(19),2(7),3,5,15,17-hexaen-14-yl]-6-oxo-1,6-dihydropyrimidin-4-yl}phenyl)-N-hydroxy-1H-1,2,3-triazole-4-carboximidamide bis-trifluoroacetate]	38

target: human Factor XIa (Homo sapiens, UniProt P03951); assay: biochemical; details: purified human Factor XIa, substrate S-2366, HEPES buffer pH 7.4
Sequence (P03951 388-625 limits assumed): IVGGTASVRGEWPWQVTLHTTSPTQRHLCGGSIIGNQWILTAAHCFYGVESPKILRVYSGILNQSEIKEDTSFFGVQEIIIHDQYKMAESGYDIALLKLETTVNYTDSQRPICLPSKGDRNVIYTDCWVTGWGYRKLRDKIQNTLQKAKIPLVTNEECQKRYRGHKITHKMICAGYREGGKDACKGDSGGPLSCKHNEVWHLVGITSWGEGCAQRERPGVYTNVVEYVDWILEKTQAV
Sequence (P03951 19-387 partner limits assumed): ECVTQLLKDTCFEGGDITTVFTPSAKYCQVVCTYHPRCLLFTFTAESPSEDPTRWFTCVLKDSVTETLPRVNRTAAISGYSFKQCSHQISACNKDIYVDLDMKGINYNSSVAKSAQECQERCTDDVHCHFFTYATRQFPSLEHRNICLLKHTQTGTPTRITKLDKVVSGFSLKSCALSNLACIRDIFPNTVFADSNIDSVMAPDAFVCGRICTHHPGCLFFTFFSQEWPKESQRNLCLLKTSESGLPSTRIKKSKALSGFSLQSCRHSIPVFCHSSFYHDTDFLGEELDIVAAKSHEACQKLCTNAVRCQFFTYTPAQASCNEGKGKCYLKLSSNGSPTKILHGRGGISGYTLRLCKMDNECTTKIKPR

SMILES	Ki [nM]
C[C@@H]1CCC[C@H](n2cnc(-c3c(-n4cnnn4)ccc(Cl)c3F)cc2=O)c2cc(ccn2)-c2cc(F)ccc2NC1=O [Example 35, (10R,14S)-14-{4-[3-chloro-2-fluoro-6-(1H-1,2,3,4-tetrazol-1-yl)phenyl]-6-oxo-1,6-dihydropyrimidin-1-yl}-4-fluoro-10-methyl-8,16-diazatricyclo[13.3.1.0^2,7]nonadeca-1(19),2(7),3,5,15,17-hexaen-9-one trifluoroacetate]	0.1
C[C@@H]1CCC[C@H](n2cnc(-c3cc(Cl)ccc3-n3cc(C(F)(F)F)nn3)cc2=O)c2cc(ccn2)-c2ccc(C#N)cc2NC1=O [Example 43, (10R,14S)-14-(4-{5-chloro-2-[4-(trifluoromethyl)-1H-1,2,3-triazol-1-yl]phenyl}-6-oxo-1,6-dihydropyrimidin-1-yl)-10-methyl-9-oxo-8,16-diazatricyclo [13.3.1.0^2,7]nonadeca-1(19),2(7),3,5,15,17-hexaene-5-carbonitrile trifluoroacetate]	3
C[C@@H]1CCC[C@H](n2cnc(-c3cc(Cl)ccc3F)cc2=O)c2cc(ccn2)-c2cc(F)ccc2NC1=O [Example 50, (10R,14S)-14-[4-(5-chloro-2-fluorophenyl)-6-oxo-1,6-dihydropyrimidin-1-yl]-4-fluoro-10-methyl-8,16-diazatricyclo[13.3.1.0^2,7]nonadeca-1(19),2(7),3,5,15,17-hexaen-9-one trifluoroacetate]	290
C[C@@H]1CCC[C@H](n2cnc(-c3cc(Cl)ccc3-n3cc(Cl)nn3)cc2=O)c2cc(ccn2)-c2ccccc2NC1=O [Example 57, (10R,14S)-14-{4-[5-chloro-2-(4-chloro-1H-1,2,3-triazol-1-yl)phenyl]-6-oxo-1,6-dihydropyrimidin-1-yl}-10-methyl-8,16-diazatricyclo[13.3.1.0^2,7]nonadeca-1(19),2,4,6,15,17-hexaen-9-one]	0.28
C[C@@H]1CCC[C@H](n2cnc(-c3cc(Cl)ccc3-n3cc(Cl)nn3)cc2=O)c2cc(ccn2)-c2cc(S(C)(=O)=O)ccc2NC1=O [Example 67, (10R,14S)-14-{4-[5-chloro-2-(4-chloro-1H-1,2,3-triazol-1-yl)phenyl]-6-oxo-1,6-dihydropyrimidin-1-yl}-4-methanesulfonyl-10-methyl-8,16-diazatricyclo [13.3.1.0^2,7]nonadeca-1(19),2(7),3,5,15,17-hexaen-9-one]	11
COC(=O)c1ccc(Cl)cc1-c1cc(=O)n([C@H]2CCC[C@@H](C)C(=O)Nc3ccc(F)cc3-c3ccnc2c3)cn1 [Example 68, methyl 4-chloro-2-{1-[(10R,14S)-4-fluoro-10-methyl-9-oxo-8,16-diazatricyclo[13.3.1.0^2,7]nonadeca-1(19),2(7),3,5,15,17-hexaen-14-yl]-6-oxo-1,6-dihydropyrimidin-4-yl}benzoate]	39
C[C@@H]1CCC[C@H](n2cnc(-c3cc(Cl)ccc3-n3cc(C#N)nn3)cc2=O)c2cc(ccn2)-c2ccc(C(F)F)cc2NC1=O [Example 70, 1-(4-chloro-2-{1-[(10R,14S)-5-(difluoromethyl)-10-methyl-9-oxo-8,16-diazatricyclo[13.3.1.0^2,7]nonadeca-1(19),2(7),3,5,15,17-hexaen-14-yl]-6-oxo-1,6-dihydropyrimidin-4-yl}phenyl)-1H-1,2,3-triazole-4-carbonitrile]	0.26
Cc1ccc2c(c1)NC(=O)[C@H](C)CCC[C@H](n1cnc(-c3cc(Cl)ccc3-n3cc(C(F)(F)F)nn3)cc1=O)c1cc-2ccn1 [Example 78, (10R,14S)-14-(4-{5-chloro-2-[4-(trifluoromethyl)-1H-1,2,3-triazol-1-yl]phenyl}-6-oxo-1,6-dihydropyrimidin-1-yl)-5,10-dimethyl-8,16-diazatricyclo [13.3.1.0^2,7]nonadeca-1(19),2(7),3,5,15,17-hexaen-9-one]	0.42
C[C@@H]1CCC[C@H](n2cnc(-c3cc(Cl)ccc3-n3cc(Cl)nn3)cc2=O)c2cc(ccn2)-c2ccc(O)cc2NC1=O [Example 85, (10R,14S)-14-{4-[5-chloro-2-(4-chloro-1H-1,2,3-triazol-1-yl)phenyl]-6-oxo-1,6-dihydropyrimidin-1-yl}-5-hydroxy-10-methyl-8,16-diazatricyclo[13.3.1.0^2,7]nonadeca-1(19),2(7),3,5,15,17-hexaen-9-one trifluoroacetate]	0.1
C[C@@H]1CCC[C@H](n2cnc(-c3cc(Cl)ccc3-n3cc(Cl)nn3)cc2=O)c2cc(ccn2)-c2ccc(C(F)(F)C(N)=O)cc2NC1=O [Example 90, 2-[(10R,14S)-14-{4-[5-chloro-2-(4-chloro-1H-1,2,3-triazol-1-yl)phenyl]-6-oxo-1,6-dihydropyrimidin-1-yl}-10-methyl-9-oxo-8,16-diazatricyclo[13.3.1.0^2,7]nonadeca-1(19),2(7),3,5,15,17-hexaen-5-yl]-2,2-difluoroacetamide trifluoroacetate]	7.1
